Test results: patent publication US12234257B2, “Triterpene saponin derivative and use thereof” (KOREA INSTITUTE OF SCIENCE AND TECHNOLOGY, priority 2020, dated 2025)

Columns and labels:
TH and α-synuclein = test: Western blot of TH and α-synuclein in ST and SN of MPTP-impaired mice; type: in vivo, mice (C57BL/6j); conditions: for α-synuclein level: vs MPTP-treated mice; for TH level: MPTP mice
Experimental: 40 mice were classified into five groups such that eight mice belonged to each group. After the habituation period, all mice were orally administered with a drug every day. While the mice of Groups 1 and 2 were administered with saline (p.o.), the mice of Groups 3, 4, and 5 were administered with 5 mg/kg ropinirole (p.o.), 5 mg/kg AKNS-2 (p.o.), and 15 mg/kg AKNS-2 (p.o.), respectively. From the 5th day therefrom, the mice of Group 1 were intraperitoneally administered with a saline at 1 hour after gavage feeding of saline, and the mice of Groups 2, 3, 4, and 5 were administered with 30 mg/kg MPTP (i.p.) at 1 hour after gavage feeding of saline, ropinirole, AKNS-2 (5 mg/kg), and AKNS-2 (15 mg/kg), respectively. Each mouse was administered with a single dose of saline/MPTP injection every day for 8 days. At 7 days after the final MPTP injection, all mice were sacrificed by cervical dislocation, and then the whole brain, SNpc, and striatum (ST) were excised for biochemical analysis.
On the 7th day after the last administration of MPTP, SNpc and ST of each mouse were carefully excised and stored at −80° C. until use. Thereafter, brain tissue of SNpc and ST was homogenized in a PRO-PREP™ lysis buffer (iNtRON, Gyeonggi, Korea) containing a phosphatase inhibitor cocktail set I (Sigma-Aldrich, Mo., USA). After shaking at 4° C. for 30 minutes, homogenates were centrifuged at 4° C. at 13000×g for 20 minutes, and a supernatant obtained therefrom was collected and added to a new 1.5 mL tube. A concentration of proteins contained in the supernatant was measured by the Bradford method. A part of the supernatant was mixed with the same volume of a loading buffer and denatured in a heater at 99° C. for 5 minutes for western blot analysis. The remaining supernatant was stored at −80° C. for subsequent tests for MAO-B activity and DA level using an ELISA kit.
Protein markers contained in lysates of the SH-SY5Y cells and brain tissue of the mice (SNpc and ST) were measured by western blot analysis. […] Then, proteins separated on the gel were transferred to a polyvinylidene fluoride (PVDF) membrane for 45 minutes using a Trans-Blot Turbo Transfer System (Bio-Rad, USA). The membrane was washed with tris-buffered saline with 0.1% Tween 20, TBST) for 5 minutes and then blocked by 5% skim milk dissolved in a TBST buffer. The membrane was further incubated with monoclonal primary antibodies derived from rabbits (anti-GAPDH, anti-AMPK, anti-p-AMPK, anti-ULK, anti-p-ULK555, anti-Erk, anti-p-Erk, anti-mTOR, anti-p-mTOR, anti-LC3B, anti-TH, and anti-α-synuclein antibodies). The primary antibodies were diluted in a blocking buffer at a ratio of 1:1000 and incubated overnight at 4° C. […] The intensity of the protein blots was quantified using Multi Gauge software (Fujifilm, Japan).

DA level in ST = test: Measurement of DA level in ST (ELISA); type: in vivo, mice (C57BL/6j); conditions: MPTP 30 mg/kg mice
Experimental: 40 mice were classified into five groups such that eight mice belonged to each group. After the habituation period, all mice were orally administered with a drug every day. While the mice of Groups 1 and 2 were administered with saline (p.o.), the mice of Groups 3, 4, and 5 were administered with 5 mg/kg ropinirole (p.o.), 5 mg/kg AKNS-2 (p.o.), and 15 mg/kg AKNS-2 (p.o.), respectively. […]
On the 7th day after the last administration of MPTP, SNpc and ST of each mouse were carefully excised and stored at −80° C. until use. […] A concentration of proteins contained in the supernatant was measured by the Bradford method. […]
DA levels in ST were measured using a competitive ELISA kit (Abnova, Taipei City, Taiwan) according to the manufacturer's instructions. […] After determining a concentration of proteins contained in the supernatant, the DA level in each brain sample was detected twice using the ELISA kit. Absorbance was measured using a microreader (BioTek, Vt., USA) at 450 nm, and the intensity was inversely proportional to the DA level. The DA level was expressed as ng/mg protein.

[1] = test system: MPTP-induced in vivo PD model; test: Rotarod test; design: species or system mice (C57BL/6j); conditions: MPTP 30 mg/kg i.p. mice; for behavioral performance in rotarod test (latency to fall): 2 hours and 24 hours after last MPTP
Experimental: In this study, all animal management and experimental protocols were performed in compliance with guidelines of the Institutional Animal Care and Use Committee of the Korea Institute of Science and Technology. 40 mice (C57BL/6j, male, 8 weeks old) were purchased from SLC Inc. (Shizuoka, Japan). After arrival, every four mice were hosed in each cage (30 cm×18.5 cm×13 cm) and allowed free access to feed and water. All mice were housed under the following constant conditions: lights on from 6:00 to 18:00, a temperature of 23° C.±1° C., and a humidity of 50%±10%. After 7 days of a habituation period, the mice were used in the experiments according to standard protocols. 40 mice were classified into five groups such that eight mice belonged to each group. After the habituation period, all mice were orally administered with a drug every day. […] Each mouse was administered with a single dose of saline/MPTP injection every day for 8 days. At 7 days after the final MPTP injection, all mice were sacrificed by cervical dislocation, and then the whole brain, SNpc, and striatum (ST) were excised for biochemical analysis. […] A rotarod test was performed according to a known method with minimal modification (Borlongan C. V. et al., Pharmacology Biochemistry and Behavior. 1995, 52:225; Hu X. et al., Neuropharmacology, 2017, 117:352). Briefly, the test consisted of a pretraining section and a test section. The pretraining section was performed for consecutive 4 days. The mice were positioned in a cylinder of a rotarod apparatus such that tails of all mice faced an operator and trained for 300 seconds at a constant speed of 16 rpm. During the 300 seconds, mice falling to the floor were placed back on the cylinder by the operator. All mice were trained three times in total every day at an interval of about 30 minutes before administration of MPTP. […] Latency to fall off the rotarod was recorded for each mouse. […] Latency to fall off the rotarod was measured for each mouse. […] An average time of three tests was calculated to evaluate balance, grip strength, and motor coordination.

[2] = both ST and SN, 5 mg/kg and 15 mg/kg p.o.

## C[C@@H]1O[C@@H](O[C@@H]2[C@@H](O)[C@H](O[C@@H]3[C@@H](O[C@@H]4OC[C@@H](O)[C@H](O)[C@H]4O)[C@@H](O)[C@H](O[C@H]4[C@H](OC(=O)[C@]56CCC(C)(C)C[C@H]5C5=CC[C@@H]7[C@@]8(C)C[C@H](O)[C@H](O[C@@H]9O[C@H](CO)[C@@H](O)[C@H](O[C@@H]%10OC[C@@H](O)[C@H](O)[C@H]%10O)[C@H]9O)[C@@](C)(CO)[C@@H]8CC[C@@]7(C)[C@]5(C)C[C@H]6O)OC[C@H](O)[C@@H]4O)O[C@H]3C)OC[C@H]2O)[C@H](O)[C@H](O)[C@H]1O [Compound 1, 3-O-β-D-xylopyranosyl-(1→3)-β-D-glucopyranosylpolygalacic acid 28-O-α-L-rhamnopyranosyl-(1→3)-β-D-xylopyranosyl-(1→4)-[β-D-xylopyranosyl-(1→3)]-α-L-rhamnopyranosyl-(1→2)-α-L-arabinopyranosyl ester]
TH and α-synuclein; [2]
  α-synuclein level: a significant decrease in the α-synuclein level
  TH level: considerably reversed
DA level in ST; 15 mg/kg p.o.
  DA level in ST: the decrease in the DA level induced by MPTP was restored
[1]; 5 mg/kg p.o., at 24 hours
  behavior performance in rotarod test (latency to fall): significantly improved MPTP-impaired behavior performance
[1]; 15 mg/kg p.o.
  behavioral performance in rotarod test (latency to fall): the impairment was reversed

## CCCN(CCC)CCc1cccc2c1CC(=O)N2 [ropinirole, reference compound]
TH and α-synuclein; ST and SN, 5 mg/kg p.o.
  α-synuclein level: a significant decrease in the α-synuclein level
TH and α-synuclein; both ST and SN, 5 mg/kg p.o.
  TH level: considerably reversed
DA level in ST; 5 mg/kg p.o.
  DA level in ST: the decrease in the DA level induced by MPTP was restored
[1]; 5 mg/kg p.o.
  behavioral performance in rotarod test (latency to fall): the impairment was reversed
